For 13 compounds, GI50 and TGI results are on record in PubChem BioAssay (NCI).

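Dose response: 5 concentrations. Exposure: 48 h. Format: 96-well plates. Endpoint: linear interpolation; highest concentration if not reached. The concentration for 50% growth inhibition is given as GI50. TGI is the concentration that stops growth completely.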

Test systems include 786-0 renal; BT-549 breast; HS 578T breast; MDA-MB-435; OVCAR-3 ovarian; SK-OV-3 ovarian; SNB-19 CNS.
Holding throughout (test): NCI-60 cell line screen, 48 h

With `CCOc1ccc2cc(-c3nn(CC4CCN(C)CC4)c4ncnc(N)c34)ccc2c1`, the GI50 is 14.5 µM in the test with 786-0 renal; 13.6 µM with BT-549 breast; 11.1 µM in the test with HS 578T breast; 12.2 µM with MDA-MB-435; 16.2 µM with OVCAR-3 ovarian; 11.2 µM in the test with SK-OV-3 ovarian. In addition, the GI50 in the test with SNB-19 CNS was 15.6 µM. In addition, the TGI in the test with 786-0 renal amounted to 29.7 µM; in the test with BT-549 breast, 29 µM; in the test on HS 578T breast, 33.7 µM; in the test on MDA-MB-435, 24.7 µM; in the test on OVCAR-3 ovarian, 39.7 µM; in the test on SK-OV-3 ovarian, 36.1 µM. Also, the TGI in the test on SNB-19 CNS was 45.9 µM.

Turning to `CSC(=S)NCc1cn(C)c2ccccc12`, the GI50 in the test with 786-0 renal is 24.8 µM; in the test with BT-549 breast, 20 µM; in the test with HS 578T breast, 26.3 µM; with MDA-MB-435 it was 27.8 µM; in the test on OVCAR-3 ovarian it was 23.4 µM; in the test with SK-OV-3 ovarian it was 30.2 µM. Moreover, the GI50 with SNB-19 CNS was 40.3 µM. Moreover, the TGI in the test with 786-0 renal is > 100 µM; with BT-549 breast it was 54.2 µM; in the test on HS 578T breast, 73.6 µM; with MDA-MB-435, > 100 µM; with OVCAR-3 ovarian it was 80.4 µM; in the test on SK-OV-3 ovarian, > 100 µM. For the same compound, the TGI in the test on SNB-19 CNS is > 100 µM.

`Cc1cc(C)nc(NC(=O)COc2ccc(Cl)cc2)c1`: the TGI in the test on 786-0 renal, with BT-549 breast, with HS 578T breast, in the test on MDA-MB-435, in the test on OVCAR-3 ovarian and in the test on SK-OV-3 ovarian was > 100 µM in each case. Also, the TGI in the test on SNB-19 CNS was > 100 µM.

Take `NC(=S)c1cccc(C2Nc3ccccc3O2)c1` (configuration not stated): the TGI in the test with 786-0 renal, in the test on HS 578T breast, with MDA-MB-435, with OVCAR-3 ovarian, in the test with SK-OV-3 ovarian and in the test with SNB-19 CNS was > 100 µM each time.

In the case of `N#C/C(=C/C=C/c1cccc(Cl)c1)S(=O)c1ccccc1` (configuration not stated), the GI50 in the test on 786-0 renal is 0.308 µM; with HS 578T breast, 1.68 µM; in the test on MDA-MB-435, 0.448 µM; in the test with OVCAR-3 ovarian, 0.253 µM; with SK-OV-3 ovarian, 2.21 µM; with SNB-19 CNS, 0.684 µM. In addition, the TGI stood at 1.01 µM in the test with 786-0 renal; 33.4 µM in the test with HS 578T breast; 1.69 µM in the test on MDA-MB-435; 0.782 µM in the test on OVCAR-3 ovarian; 10.2 µM with SK-OV-3 ovarian; 2.52 µM in the test with SNB-19 CNS.

Turning to `O=C1c2ccccc2-c2c1c1ccccc1c(=O)n2CCNCCNCCNCCNCCn1c2c(c3ccccc3c1=O)C(=O)c1ccccc1-2`, the GI50 was 0.102 µM in the test on 786-0 renal, 0.334 µM in the test on BT-549 breast and 1.45 µM in the test with OVCAR-3 ovarian. Besides, the TGI in the test with 786-0 renal stood at 2.19 µM; in the test with BT-549 breast it was 1.62 µM; in the test with OVCAR-3 ovarian it was 4.96 µM.

In the case of `CN(CCOc1ccc(NS(C)(=O)=O)cc1)CCc1ccc(NS(C)(=O)=O)cc1`, the GI50 in the test with 786-0 renal, in the test with BT-549 breast, in the test on HS 578T breast, in the test with MDA-MB-435, in the test on OVCAR-3 ovarian and with SNB-19 CNS was > 100 µM each time. In addition, the TGI in the test on 786-0 renal, with BT-549 breast, in the test on HS 578T breast, in the test on MDA-MB-435, in the test with OVCAR-3 ovarian and in the test on SNB-19 CNS was > 100 µM in each case.

Regarding `O=C(O)C(Cc1ccccc1)N1C(=O)/C(=C/C(Cl)=C/c2ccc([N+](=O)[O-])cc2)SC1=S` (configuration not stated), the GI50 with 786-0 renal is 2.2 µM; in the test with HS 578T breast it was 4.37 µM; in the test with MDA-MB-435, 2.27 µM; with OVCAR-3 ovarian, 1.76 µM; with SK-OV-3 ovarian, 4.13 µM. For the same compound, the TGI is 5.02 µM with 786-0 renal; > 100 µM with HS 578T breast; 6 µM in the test on MDA-MB-435; 3.51 µM in the test on OVCAR-3 ovarian; > 100 µM with SK-OV-3 ovarian.

For `Cc1cc(C)c(-c2c(O)c(Br)c(-c3c(C)cc(C)c(Br)c3C)c(O)c2Br)c(C)c1Br`, the GI50 is 3.74 µM in the test with 786-0 renal; 2.25 µM with BT-549 breast; 2.32 µM in the test with HS 578T breast; 2.35 µM in the test with MDA-MB-435; 2.33 µM in the test on OVCAR-3 ovarian; 4.77 µM with SK-OV-3 ovarian. Further, the TGI amounted to 14.3 µM in the test on 786-0 renal; 10.5 µM in the test with BT-549 breast; 11.9 µM in the test on HS 578T breast; 8.55 µM in the test with MDA-MB-435; 10.8 µM in the test with OVCAR-3 ovarian; 23.8 µM in the test on SK-OV-3 ovarian.

Regarding `CCCCS(=O)(=O)c1cc(Nc2ccc(O)c3c2C(=O)c2ccccc2C3=O)ccc1C`, the GI50 in the test with 786-0 renal is > 100 µM; in the test on BT-549 breast, > 100 µM; in the test with HS 578T breast it was 75.5 µM; in the test with SK-OV-3 ovarian, > 100 µM; in the test on SNB-19 CNS it was 13.4 µM. In addition, the TGI in the test with 786-0 renal, in the test on BT-549 breast, in the test on HS 578T breast, in the test on SK-OV-3 ovarian and in the test on SNB-19 CNS was > 100 µM throughout.

For the compound `COc1ccc(/C=C(\C#N)c2cc(OC)c(OC)c(OC)c2)cc1`, the GI50 in the test on 786-0 renal was 0.0309 µM; in the test on BT-549 breast, 0.0282 µM; in the test with HS 578T breast it was 0.0359 µM; with OVCAR-3 ovarian it was < 0.014 µM; with SK-OV-3 ovarian, < 0.0138 µM; with SNB-19 CNS, 0.0558 µM. Moreover, the TGI with 786-0 renal is 34.6 µM; with BT-549 breast it was 0.0883 µM; with HS 578T breast it was > 100 µM; in the test with OVCAR-3 ovarian, 0.0322 µM; in the test with SK-OV-3 ovarian it was 0.221 µM; with SNB-19 CNS it was > 100 µM.

In the case of `COc1ccc(CN2c3ccccc3Sc3ccccc32)cc1O`, the GI50 with 786-0 renal is 0.838 µM; in the test on BT-549 breast, 0.773 µM; in the test with HS 578T breast it was 0.933 µM; with SK-OV-3 ovarian it was 0.521 µM; in the test with SNB-19 CNS, 0.771 µM. For the same compound, the TGI in the test on 786-0 renal was found to be 21.5 µM; in the test on BT-549 breast it was 17.1 µM; with HS 578T breast it was 46 µM; in the test with SK-OV-3 ovarian it was 16.4 µM; in the test with SNB-19 CNS, 26.9 µM.

As to `COc1ccc(C(=O)c2ccccc2)c(O)c1`, the GI50 in the test with 786-0 renal was > 100 µM; in the test on HS 578T breast, 61.2 µM; in the test with MDA-MB-435, 66.6 µM; in the test on OVCAR-3 ovarian it was > 100 µM; in the test on SK-OV-3 ovarian, > 100 µM; in the test with SNB-19 CNS, > 100 µM. For the same compound, the TGI in the test with 786-0 renal, in the test on HS 578T breast, with MDA-MB-435, in the test with OVCAR-3 ovarian, in the test on SK-OV-3 ovarian and in the test with SNB-19 CNS was > 100 µM in each case.
